According to ChEMBL document CHEMBL4507324 (2021):

Experiments:
Conditions in all cases: Compound concentration 100.0 nM
[1] = molecular target: Ankyrin repeat and protein kinase domain-containing protein 1 (Homo sapiens) (UniProt Q8NFD2)
[2] = molecular target: Mitogen-activated protein kinase kinase kinase 6 (Homo sapiens) (UniProt O95382)
[3] = test system: Serine/threonine-protein kinase B-raf (Homo sapiens), P15056 [V600E]
[4] = molecular target: Calcium/calmodulin-dependent protein kinase type 1G (Homo sapiens) (UniProt Q96NX5)
[5] = molecular target: Calcium/calmodulin-dependent protein kinase type II subunit gamma (Homo sapiens) (UniProt Q13555)
[6] = molecular target: Calcium/calmodulin-dependent protein kinase type IV (Homo sapiens) (UniProt Q16566)
[7] = molecular target: Cyclin-dependent kinase 19 (Homo sapiens) (UniProt Q9BWU1)
[8] = molecular target: Cyclin-dependent kinase-like 5 (Homo sapiens) (UniProt O76039)
[9] = molecular target: Dual specificity protein kinase CLK1 (Homo sapiens) (UniProt P49759)
[10] = molecular target: Eukaryotic translation initiation factor 2-alpha kinase 1 (Homo sapiens) (UniProt Q9BQI3)
Sequence of Eukaryotic translation initiation factor 2-alpha kinase 1 (Homo sapiens) (Q9BQI3 whole entry): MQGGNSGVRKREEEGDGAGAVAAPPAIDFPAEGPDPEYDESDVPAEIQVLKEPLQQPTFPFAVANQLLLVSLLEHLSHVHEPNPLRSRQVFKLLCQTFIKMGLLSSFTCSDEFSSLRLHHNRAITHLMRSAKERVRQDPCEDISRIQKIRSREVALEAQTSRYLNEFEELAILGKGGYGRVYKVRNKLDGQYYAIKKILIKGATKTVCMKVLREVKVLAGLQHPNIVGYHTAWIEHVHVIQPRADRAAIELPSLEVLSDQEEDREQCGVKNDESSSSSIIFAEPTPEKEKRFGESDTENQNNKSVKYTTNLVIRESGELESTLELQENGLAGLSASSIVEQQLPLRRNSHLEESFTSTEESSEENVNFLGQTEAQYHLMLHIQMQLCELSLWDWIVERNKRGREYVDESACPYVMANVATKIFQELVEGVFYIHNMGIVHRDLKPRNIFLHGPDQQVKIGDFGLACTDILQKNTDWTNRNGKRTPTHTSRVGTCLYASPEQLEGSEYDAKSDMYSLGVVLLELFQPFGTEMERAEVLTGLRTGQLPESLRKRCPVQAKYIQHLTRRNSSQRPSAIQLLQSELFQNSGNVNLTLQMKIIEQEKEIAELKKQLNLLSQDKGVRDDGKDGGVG

[11] = molecular target: Mitogen-activated protein kinase 4 (Homo sapiens) (UniProt P31152)
[12] = molecular target: Tyrosine-protein kinase Fer (Homo sapiens) (UniProt P16591)
[13] = molecular target: Fibroblast growth factor receptor 4 (Homo sapiens) (UniProt P22455)
[14] = molecular target: Receptor-type tyrosine-protein kinase FLT3 (Homo sapiens) (UniProt P36888)
[15] = molecular target: Insulin-like growth factor 1 receptor (Homo sapiens) (UniProt P08069)
[16] = test system: Mast/stem cell growth factor receptor Kit (Homo sapiens), P10721 [D816H]
[17] = test system: Mast/stem cell growth factor receptor Kit (Homo sapiens), P10721 [D816V]
[18] = molecular target: Mitogen-activated protein kinase kinase kinase 4 (Homo sapiens) (UniProt Q9Y6R4)
Sequence of Mitogen-activated protein kinase kinase kinase 4 (Homo sapiens) (Q9Y6R4 whole entry): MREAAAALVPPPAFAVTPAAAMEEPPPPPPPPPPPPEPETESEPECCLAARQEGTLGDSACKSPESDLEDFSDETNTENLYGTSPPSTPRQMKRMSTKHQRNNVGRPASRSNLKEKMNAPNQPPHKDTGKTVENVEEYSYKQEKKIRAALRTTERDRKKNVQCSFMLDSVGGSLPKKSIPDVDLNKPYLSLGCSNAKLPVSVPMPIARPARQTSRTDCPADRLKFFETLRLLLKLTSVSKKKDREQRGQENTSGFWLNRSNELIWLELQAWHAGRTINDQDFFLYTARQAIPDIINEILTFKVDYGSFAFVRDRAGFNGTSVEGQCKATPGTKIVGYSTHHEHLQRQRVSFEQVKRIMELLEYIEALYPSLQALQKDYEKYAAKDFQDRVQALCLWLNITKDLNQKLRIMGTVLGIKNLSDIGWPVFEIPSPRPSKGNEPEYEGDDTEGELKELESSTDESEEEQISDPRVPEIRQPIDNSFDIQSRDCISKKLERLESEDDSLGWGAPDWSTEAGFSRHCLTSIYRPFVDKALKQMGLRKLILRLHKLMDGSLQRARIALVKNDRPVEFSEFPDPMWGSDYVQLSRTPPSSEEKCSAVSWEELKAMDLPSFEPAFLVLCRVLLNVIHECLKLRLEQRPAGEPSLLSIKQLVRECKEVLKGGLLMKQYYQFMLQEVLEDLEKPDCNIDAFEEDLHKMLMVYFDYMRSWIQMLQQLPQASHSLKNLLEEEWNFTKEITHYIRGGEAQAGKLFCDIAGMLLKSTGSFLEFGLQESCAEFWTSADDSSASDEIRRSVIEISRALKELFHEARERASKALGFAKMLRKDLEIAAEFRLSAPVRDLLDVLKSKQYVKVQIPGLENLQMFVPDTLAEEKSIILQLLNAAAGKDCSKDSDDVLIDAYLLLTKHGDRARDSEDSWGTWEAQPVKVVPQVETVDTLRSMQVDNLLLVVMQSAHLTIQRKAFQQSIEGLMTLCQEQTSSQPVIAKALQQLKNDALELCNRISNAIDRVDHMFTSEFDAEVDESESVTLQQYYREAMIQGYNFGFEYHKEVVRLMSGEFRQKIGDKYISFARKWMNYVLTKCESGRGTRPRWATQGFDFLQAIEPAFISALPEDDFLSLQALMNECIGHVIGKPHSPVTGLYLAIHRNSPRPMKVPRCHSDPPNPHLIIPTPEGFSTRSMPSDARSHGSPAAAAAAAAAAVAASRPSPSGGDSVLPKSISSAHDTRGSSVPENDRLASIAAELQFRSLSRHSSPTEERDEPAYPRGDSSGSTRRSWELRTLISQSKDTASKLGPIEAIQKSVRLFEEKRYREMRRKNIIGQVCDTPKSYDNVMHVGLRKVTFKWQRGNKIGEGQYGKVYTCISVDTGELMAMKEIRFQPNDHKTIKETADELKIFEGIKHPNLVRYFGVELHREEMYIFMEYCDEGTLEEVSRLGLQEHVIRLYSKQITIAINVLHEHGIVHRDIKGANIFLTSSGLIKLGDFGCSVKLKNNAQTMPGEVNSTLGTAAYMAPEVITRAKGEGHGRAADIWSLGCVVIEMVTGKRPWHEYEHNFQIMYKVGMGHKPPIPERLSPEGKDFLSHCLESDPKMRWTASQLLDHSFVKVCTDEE

[19] = molecular target: Mitogen-activated protein kinase kinase kinase kinase 3 (Homo sapiens) (UniProt Q8IVH8)
[20] = molecular target: MAP kinase-activated protein kinase 5 (Homo sapiens) (UniProt Q8IW41)
[21] = molecular target: Serine/threonine-protein kinase MARK1 (Homo sapiens) (UniProt Q9P0L2)
[22] = molecular target: Hepatocyte growth factor receptor (Homo sapiens) (UniProt P08581)
[23] = molecular target: Serine/threonine-protein kinase MRCK alpha (Homo sapiens) (UniProt Q5VT25)
[24] = molecular target: Serine/threonine-protein kinase 38-like (Homo sapiens, UniProt Q9Y2H1)
[25] = molecular target: Serine/threonine-protein kinase PAK 6 (Homo sapiens) (UniProt Q9NQU5)
Sequence of Serine/threonine-protein kinase PAK 6 (Homo sapiens) (Q9NQU5 whole entry, looked up): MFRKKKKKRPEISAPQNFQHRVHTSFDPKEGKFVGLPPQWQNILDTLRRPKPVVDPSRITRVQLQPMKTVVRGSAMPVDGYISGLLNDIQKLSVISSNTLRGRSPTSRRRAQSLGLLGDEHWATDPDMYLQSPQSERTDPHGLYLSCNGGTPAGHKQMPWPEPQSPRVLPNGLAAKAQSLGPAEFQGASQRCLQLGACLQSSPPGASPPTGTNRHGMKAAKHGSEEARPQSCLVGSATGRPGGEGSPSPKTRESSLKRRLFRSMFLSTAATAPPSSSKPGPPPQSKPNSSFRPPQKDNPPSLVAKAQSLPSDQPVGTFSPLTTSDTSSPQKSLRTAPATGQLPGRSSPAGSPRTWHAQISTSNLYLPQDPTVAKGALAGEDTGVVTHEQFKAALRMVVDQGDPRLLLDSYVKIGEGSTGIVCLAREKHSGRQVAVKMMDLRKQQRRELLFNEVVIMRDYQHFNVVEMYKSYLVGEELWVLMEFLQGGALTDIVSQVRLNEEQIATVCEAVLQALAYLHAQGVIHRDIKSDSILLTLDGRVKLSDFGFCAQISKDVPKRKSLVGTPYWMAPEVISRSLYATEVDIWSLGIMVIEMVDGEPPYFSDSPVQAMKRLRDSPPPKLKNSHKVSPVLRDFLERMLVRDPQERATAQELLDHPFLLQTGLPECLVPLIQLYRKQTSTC

[26] = molecular target: Serine/threonine-protein kinase PAK 5 (Homo sapiens) (UniProt Q9P286)
[27] = molecular target: Phosphatidylinositol 4-phosphate 3-kinase C2 domain-containing subunit beta (Homo sapiens) (UniProt O00750)
[28] = test system: Phosphatidylinositol 4,5-bisphosphate 3-kinase catalytic subunit alpha isoform (Homo sapiens), P42336 [E545K]
[29] = molecular target: Phosphatidylinositol 4,5-bisphosphate 3-kinase catalytic subunit delta isoform (Homo sapiens) (UniProt O00329)
[30] = molecular target: Serine/threonine-protein kinase PknB (Mycobacterium tuberculosis) (UniProt P9WI81)
[31] = molecular target: Protein kinase C delta type (Homo sapiens) (UniProt Q05655)
[32] = molecular target: Protein kinase C eta type (Homo sapiens) (UniProt P24723)
[33] = molecular target: Serine/threonine-protein kinase SIK3 (Homo sapiens) (UniProt Q9Y2K2)
[34] = test system: Proto-oncogene tyrosine-protein kinase receptor Ret (Homo sapiens), P07949 [V804M]
Sequence of Proto-oncogene tyrosine-protein kinase receptor Ret (Homo sapiens), P07949 [V804M] (P07949 whole entry V804M): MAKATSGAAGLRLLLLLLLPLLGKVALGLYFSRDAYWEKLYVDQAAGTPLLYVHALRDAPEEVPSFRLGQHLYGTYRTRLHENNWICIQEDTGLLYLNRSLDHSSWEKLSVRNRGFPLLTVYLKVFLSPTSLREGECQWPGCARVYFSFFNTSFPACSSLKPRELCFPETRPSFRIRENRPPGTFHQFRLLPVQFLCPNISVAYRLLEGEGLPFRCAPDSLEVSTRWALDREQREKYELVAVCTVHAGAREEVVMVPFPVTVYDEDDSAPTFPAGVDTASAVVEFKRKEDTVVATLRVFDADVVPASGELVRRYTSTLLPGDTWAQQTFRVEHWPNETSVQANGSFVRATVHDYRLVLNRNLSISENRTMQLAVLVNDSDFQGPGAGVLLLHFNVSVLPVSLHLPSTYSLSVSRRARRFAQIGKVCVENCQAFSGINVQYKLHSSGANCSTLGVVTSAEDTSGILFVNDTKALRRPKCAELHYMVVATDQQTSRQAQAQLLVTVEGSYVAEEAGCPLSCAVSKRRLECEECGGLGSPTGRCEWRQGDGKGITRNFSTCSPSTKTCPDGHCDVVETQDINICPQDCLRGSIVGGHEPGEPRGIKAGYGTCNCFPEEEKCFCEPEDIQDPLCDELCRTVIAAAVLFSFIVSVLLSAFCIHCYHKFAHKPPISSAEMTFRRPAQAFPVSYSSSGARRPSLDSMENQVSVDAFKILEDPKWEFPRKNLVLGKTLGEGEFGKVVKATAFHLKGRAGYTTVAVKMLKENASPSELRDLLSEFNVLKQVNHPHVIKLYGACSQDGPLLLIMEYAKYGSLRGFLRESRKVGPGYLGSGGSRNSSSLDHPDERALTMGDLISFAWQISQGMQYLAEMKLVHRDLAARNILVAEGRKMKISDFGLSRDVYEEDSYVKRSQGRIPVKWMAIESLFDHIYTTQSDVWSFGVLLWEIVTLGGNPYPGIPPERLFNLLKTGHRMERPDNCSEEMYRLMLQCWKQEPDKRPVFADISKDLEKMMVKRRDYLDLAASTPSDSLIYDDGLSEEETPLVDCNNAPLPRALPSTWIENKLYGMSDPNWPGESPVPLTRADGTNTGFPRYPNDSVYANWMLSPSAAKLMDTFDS

[35] = molecular target: Serine/threonine-protein kinase RIO2 (Homo sapiens) (UniProt Q9BVS4)
[36] = molecular target: Serine/threonine-protein kinase SIK2 (Homo sapiens) (UniProt Q9H0K1)
[37] = molecular target: Activated CDC42 kinase 1 (Homo sapiens) (UniProt Q07912)
[38] = molecular target: Serine/threonine-protein kinase TNNI3K (Homo sapiens) (UniProt Q59H18)
[39] = molecular target: Non-receptor tyrosine-protein kinase TYK2 (Homo sapiens) (UniProt P29597)
[40] = molecular target: Serine/threonine-protein kinase ULK1 (Homo sapiens) (UniProt O75385)
[41] = molecular target: Serine/threonine-protein kinase ULK3 (Homo sapiens) (UniProt Q6PHR2)
[42] = molecular target: Serine/threonine-protein kinase 32A (Homo sapiens) (UniProt Q8WU08)
[43] = molecular target: Serine/threonine-protein kinase 32B (Homo sapiens) (UniProt Q9NY57)
[44] = molecular target: Mitogen-activated protein kinase kinase kinase 19 (Homo sapiens) (UniProt Q56UN5)

Sequence of Ankyrin repeat and protein kinase domain-containing protein 1 (Homo sapiens) (Q8NFD2 whole entry, the tested form may be a part): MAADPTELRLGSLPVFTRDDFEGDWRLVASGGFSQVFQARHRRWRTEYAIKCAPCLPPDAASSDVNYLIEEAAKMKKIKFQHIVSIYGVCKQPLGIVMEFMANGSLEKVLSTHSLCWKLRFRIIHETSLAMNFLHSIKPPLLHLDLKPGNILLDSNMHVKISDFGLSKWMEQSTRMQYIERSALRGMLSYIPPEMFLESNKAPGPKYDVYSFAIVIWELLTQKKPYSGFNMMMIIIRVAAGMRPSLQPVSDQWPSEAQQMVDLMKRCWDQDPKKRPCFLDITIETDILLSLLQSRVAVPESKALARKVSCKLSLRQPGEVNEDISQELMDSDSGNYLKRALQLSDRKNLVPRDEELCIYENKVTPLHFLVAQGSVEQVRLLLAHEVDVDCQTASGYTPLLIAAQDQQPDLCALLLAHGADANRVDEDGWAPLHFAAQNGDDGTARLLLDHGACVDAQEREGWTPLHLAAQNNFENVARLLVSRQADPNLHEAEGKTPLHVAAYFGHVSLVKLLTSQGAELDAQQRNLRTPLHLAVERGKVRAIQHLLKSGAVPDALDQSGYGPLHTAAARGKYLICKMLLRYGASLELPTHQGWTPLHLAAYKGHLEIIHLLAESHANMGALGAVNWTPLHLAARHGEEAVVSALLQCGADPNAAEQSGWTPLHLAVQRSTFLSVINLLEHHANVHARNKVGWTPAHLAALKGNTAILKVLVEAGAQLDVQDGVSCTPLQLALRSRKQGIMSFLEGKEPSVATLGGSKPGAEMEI

CS(=O)(=O)N1CCCC(NC(=O)[C@H](CCC2CCCCC2)NC(=O)c2ccc(CNc3ncnc4c3nnn4-c3ccccc3)cc2)C1 (stereo partly drawn) [SR-301]
residual activity [1]: 80%
residual activity [2]: 100%
residual activity [3]: 100%
residual activity [4]: 92%
residual activity [5]: 94%
residual activity [6]: 98%
residual activity [7]: 90%
residual activity [8]: 100%
residual activity [9]: 87%
residual activity [10]: 81%
residual activity [11]: 96%
residual activity [12]: 86%
residual activity [13]: 100%
residual activity [14]: 97%
residual activity [15]: 100%
residual activity [16]: 68%
residual activity [17]: 100%
residual activity [18]: 75%
residual activity [19]: 75%
residual activity [20]: 100%
residual activity [21]: 74%
residual activity [22]: 68%
residual activity [23]: 100%
residual activity [24]: 24%
residual activity [25]: 100%
residual activity [26]: 100%
residual activity [27]: 95%
residual activity [28]: 53%
residual activity [29]: 91%
residual activity [30]: 90%
residual activity [31]: 80%
residual activity [32]: 79%
residual activity [33]: 78%
residual activity [34]: 82%
residual activity [35]: 99%
residual activity [36]: 86%
residual activity [37]: 91%
residual activity [38]: 63%
residual activity [39]: 99%
residual activity [40]: 100%
residual activity [41]: 99%
residual activity [42]: 57%
residual activity [43]: 65%
residual activity [44]: 92%

CS(=O)(=O)N1CCCC(NC(=O)[C@H](CCC2CCCCC2)NC(=O)c2ccc(CNC(=O)c3cnc4ccccn34)cc2)C1 (stereo partly drawn) [SR-302]
residual activity [1]: 92%
residual activity [2]: 100%
residual activity [3]: 51%
residual activity [4]: 84%
residual activity [5]: 86%
residual activity [6]: 94%
residual activity [7]: 100%
residual activity [8]: 100%
residual activity [9]: 86%
residual activity [10]: 91%
residual activity [11]: 100%
residual activity [12]: 99%
residual activity [13]: 100%
residual activity [14]: 93%
residual activity [15]: 73%
residual activity [16]: 44%
residual activity [17]: 100%
residual activity [18]: 91%
residual activity [19]: 87%
residual activity [20]: 100%
residual activity [21]: 100%
residual activity [22]: 62%
residual activity [23]: 100%
residual activity [24]: 40%
residual activity [25]: 100%
residual activity [26]: 97%
residual activity [27]: 100%
residual activity [28]: 86%
residual activity [29]: 67%
residual activity [30]: 100%
residual activity [31]: 100%
residual activity [32]: 95%
residual activity [33]: 100%
residual activity [34]: 100%
residual activity [35]: 100%
residual activity [36]: 100%
residual activity [37]: 70%
residual activity [38]: 89%
residual activity [39]: 84%
residual activity [40]: 83%
residual activity [41]: 100%
residual activity [42]: 81%
residual activity [43]: 93%
residual activity [44]: 71%
